According to publication PMC11648681, “Development of machine learning models for the prediction of the skin sensitization potential of cosmetic compounds” (PeerJ, 2024):
“And” between values parts separate entries of the source, which are not always exact repeats. Equal values may be shown once. Read-outs that look alike come from different tables or passages of the source.

Assays:
[1] = CCK-8 cell viability of THP-1 cells after 48 h compound treatment in HaCaT/THP-1 co-culture; format: cell-based, human; details: human
Description: (§1) The co-culture system was set up according to the following described method. […] THP-1 cells were collected, centrifuged, and re-suspended in fresh RPMI-1640 medium supplemented with 10% FBS at 2 × 10^6 cells/mL. Then cells are distributed into HaCaT-seeded 96 wells plate with 80 μL (1.6 × 10^5 cells/well).
(§2) The compounds listed in Table 1 were dissolved in DMSO to create stock solutions with a concentration of 500 mg/mL. Eleven concentrations were subsequently prepared using two-fold serial dilutions. These stock solutions were then further diluted 250-fold in RPMI-1640 + 10% FBS medium. Finally, 80 μL of the prepared solutions were added 1:1 to the treated 96-well plates and incubated for 48 h at 37 °C and 5% CO2.
(§3) After 48 h of treatment, the treated cells were collected 100 μL cells per well. The supernatant medium was added 10 μL of CCK-8 (Life-iLab, Shanghai, China) solution to each well and incubated the plate in the incubator for 2–4 h. THP-1 cell viability was determined using standard calculation methods.
(§4) The cytotoxicity of 15 test compounds listed in Table 1 was assessed using THP-1 cells across a concentration range of 1,000 to 3.9 μg/mL. Cell viability was assessed after 48 h of treatment using the CCK-8 assay.

THP-1 cells = experiment: as above; format: cell-based, human; details: for Cell viability / final concentration used (highest concentration that maintained at least 80% cell viability): 48 h; for IC50 (cytotoxicity): 48 h treatment, CCK-8, range 1,000 to 3.9 μg/mL
Description: as §1, §2, §3, §4

[2] = THP-1 cells in co-culture with HaCaT cells, 48 h, THP-1, individual replicate values
[3] = 0.976563 μg/mL, THP-1, individual replicate values
[4] = 1.95312 μg/mL, THP-1, individual replicate values
[5] = 3.90625 μg/mL, THP-1, individual replicate values
[6] = 7.8125 μg/mL, THP-1, individual replicate values
[7] = 15.625 μg/mL, THP-1, individual replicate values
[8] = 62.5 μg/mL, THP-1, individual replicate values
[9] = 125 μg/mL, THP-1, individual replicate values
[10] = 250 μg/mL, THP-1, individual replicate values
[11] = 500 μg/mL, THP-1, individual replicate values
[12] = 1000 μg/mL, THP-1, individual replicate values
[13] = 48 h, THP-1, individual replicate values
[14] = 31.25 μg/mL, THP-1, individual replicate values
[15] = THP-1 cells, CCK-8, single (not double) concentration

Compound	viability at 48 h, 31.25 μg/mL ([1]; Cell viability) [%]	viability at 48 h, 0.976563 μg/mL [1, 2] [%]	viability at 48 h, 1.95312 μg/mL [1, 2] [%]	viability at 48 h, 3.90625 μg/mL [1, 2] [%]	viability at 48 h, 7.8125 μg/mL [1, 2] [%]	viability at 48 h, 62.5 μg/mL [1, 2] [%]	viability at 48 h, 125 μg/mL [1, 2] [%]	viability at 48 h, 250 μg/mL [1, 2] [%]	viability at 48 h, 500 μg/mL [1, 2] [%]	viability at 48 h, 1000 μg/mL [1, 2] [%]	Cell viability (THP-1 cells; [3])	Cell viability (THP-1 cells; [4])	Cell viability (THP-1 cells; [5])	Cell viability (THP-1 cells; [6])	Cell viability (THP-1 cells; [7])	Cell viability (THP-1 cells; [8])	Cell viability (THP-1 cells; [9])	Cell viability (THP-1 cells; [10])	Cell viability (THP-1 cells; [11])	Cell viability (THP-1 cells; [12])	also measured
Sc1nc2ccccc2s1 [2-mercaptobenzothiazole]	63.3	80.2	76.6	77.2	65.9	61.4	34.2	24.8	20.8	12.9	93.5695%	85.722%	80.7937%	76.7668%	73.0224%	73.444%	34.9417%	27.3318%	20.0359%	12.1659%	viability at 48 h, 15.625 μg/mL [1, 2]: 63.3%; Cell viability (THP-1 cells; human, 31.25 μg/mL): 70.7399%
C[S+](C)[O-] [DMSO, Dimethyl sulfoxide]											104.048% and 100.267%	96% and 94.5143%	96.1619% and 89.1238%						86.8476% and 87.3143%	91.9905% and 89.9048%	IC50 (cytotoxicity) (THP-1 cells; THP-1 cells): greater than 1,000 μg/mL
O=[N+]([O-])c1ccc(Cl)c([N+](=O)[O-])c1 [DNCB, 2,4-dinitrochlorobenzene]											95.0987%	97.1973%	71.1839%	7.332%	7.211%	9.193%	8.767%	9.112%	10.9865%	11.5516%	viability at 48 h, 0.976563 μg/mL [1, 13]: 102%; viability at 48 h, 1.95312 μg/mL [1, 13]: 88.2%; viability at 48 h, 3.90625 μg/mL [1, 13]: 75.9%; viability at 48 h, 7.8125 μg/mL [1, 13]: 6.82%; viability at 48 h, 15.625 μg/mL [1, 13]: 6.91%; viability at 48 h, 31.25 μg/mL ([1]; 31.25 μg/mL, 48 h, THP-1, individual replicate values, read-out: Cell viability): 7.1%; viability at 48 h, 62.5 μg/mL [1, 13]: 7.52%; viability at 48 h, 125 μg/mL [1, 13]: 8.76%; viability at 48 h, 250 μg/mL [1, 13]: 11%; viability at 48 h, 500 μg/mL [1, 13]: 13.4%; viability at 48 h, 1000 μg/mL [1, 13]: 19.9%; Cell viability (THP-1 cells; [14]): 7.274%
CC(C)O [IPA, Isopropanol]											106.609% and 97.981%	97.8095% and 92.5429%	90.3238% and 89.219%	92.0495% and 89.6476%	92.1791% and 88.8381%	91.3838% and 93%	92.3943% and 110.771%	91.0095% and 92.9524%	91.6191% and 88.9333%	96.9905% and 96.3619%	Cell viability (THP-1 cells; [14]): 92.0943% and 92.7371%; IC50 (cytotoxicity) (THP-1 cells; THP-1 cells): greater than 1,000 μg/mL
CCCCCCCCCCCCOS(=O)(=O)[O-].[Na+] [SDS, Sodium dodecyl sulfate]											99.2381% and 110.076%	92.6381% and 90.6381%	73.0476% and 93.5333%	90.7238% and 93.3905%	95.4381% and 98.4286%	37.0381% and 32.0952%	15.5905% and 18.1809%	15.9333% and 15.6381%	15.1524% and 16.781%	14.1809% and 14.2952%	Cell viability (THP-1 cells; [14]): 85.9333% and 91.0762%; final concentration used (highest concentration that maintained at least 80% cell viability) (THP-1 cells; [15]): 31.25 µg/mL
CC(C)(C)c1cc(O)ccc1O [THBQ, Tert-butylhydroquinone]	103	95.9	94.8	97.4	117	47.1	29.9	26.6	18.8	15.2	94.8298%	95.9362%	101.759%	103.546%	101.22%	47.234%	34.2837%	20.1277%	18.8014%	15.3191%	viability at 48 h, 15.625 μg/mL [1, 2]: 104%; final concentration used (highest concentration that maintained at least 80% cell viability) (THP-1 cells; [15]): 31.25 µg/mL; Cell viability (THP-1 cells; human, 31.25 μg/mL): 104.716%
N#CCCC(Br)(C#N)CBr (stereo not shown) [bromoml, 1,2-dibromo-2,4-dicyanobutane]	12	97	97.1	100	53.3	12.2	12.2	11.9	12.9	12.4	102.88%	103.993%	108.767%	57.1729%	14.391%	11.8195%	12.0752%		12.3985%	12.3609%	viability at 48 h, 15.625 μg/mL [1, 2]: 13.3%; final concentration used (highest concentration that maintained at least 80% cell viability) (THP-1 cells; [15]): 3.9 µg/mL; Cell viability (THP-1 cells; human, 31.25 μg/mL): 11.782%
O=c1c(-c2ccccc2)c1-c1ccccc1 [diphenylcyclopropenone, Diphenylcyclopropenone]		95.4	124	36.8	21.2	26.6	28.2	29.3	30.3	30.7	95.9291%	135.468%	42.1135%	16.9362%	18.4255% and 40.305%	19.5248%	23.4184%	23.9858%	31.4681%	33.1277%	viability at 48 h, 31.25 μg/mL ([1]; THP-1 cells in co-culture with HaCaT cells, 31.25 μg/mL, 48 h, THP-1, individual replicate values, read-out: Cell viability): 25.4%; Cell viability (THP-1 cells; [14]): 15.5674%; final concentration used (highest concentration that maintained at least 80% cell viability) (THP-1 cells; [15]): 0.98 µg/mL
C=CCc1ccc(O)c(OC)c1 [eugenol, Eugenol]	89.2										95.2766%	82.8227%	95.5106%	87.9007%	89.6454%	83.0993%	50.2837%	13.5816%	12.3688%	8.652% and 19.4894%	viability at 48 h, 0.976563 μg/mL [1, 13]: 96.1%; viability at 48 h, 1.95312 μg/mL [1, 13]: 85.9%; viability at 48 h, 3.90625 μg/mL [1, 13]: 94%; viability at 48 h, 7.8125 μg/mL [1, 13]: 89.2%; viability at 48 h, 15.625 μg/mL [1, 13]: 84%; viability at 48 h, 62.5 μg/mL [1, 13]: 96.6%; viability at 48 h, 125 μg/mL [1, 13]: 54.7%; viability at 48 h, 250 μg/mL [1, 13]: 13.4%; viability at 48 h, 500 μg/mL [1, 13]: 19.5%; final concentration used (highest concentration that maintained at least 80% cell viability) (THP-1 cells; human): 31.2 µg/mL; Cell viability (THP-1 cells; human, 31.25 μg/mL): 101.56%
